Measured values: US20080260653A1, “Transdermal Delivery Systems and Transdermal Chelation Preparations” (priority 2004, published 2008)

Assay: Thermal stability and activity test of chelators (copper oxide removal test)
Type: physicochemical
Details: 143 degrees F. for 5 minutes
Description: A fresh copper surface is prepared. The surface is gently heat oxidized. Next, the chelation quality was determined. About 0.0001 grams per drop (or 0.0029 g/ml) chelator effectively removed all the oxide form 1 cm sq in two minutes at a temperature of 98-99 degrees F. Then, the solution was diluted at 10% intervals to determine the point where it would not remove the oxide. There was a step wise decrease in chelation effect across the Cu test sample plate. A standard of chelation was graphed, see FIGS. 1 and 2.
A similar test is used for thermal stability and activity. […] Also, the identical test is used to determine batch activity. A crude field test is to put the chelator on a penny and heat to 98 degrees.

Structure (SMILES) | inactive (loss of chelator activity on heating) [%]
O=S(=O)([O-])CC(S)CS.[Na+] (centres unmarked) [DMPS, 2,3-dimercaptopropanesulphonate sodium] | 100
O=C(O)CN(CCN(CC(=O)O)CC(=O)O)CC(=O)O [EDTA, ethylenediamine-N,N,N′,N′-tetraacetic acid] | 100
